In PubChem BioAssay AID1845205 (Molecular Pharmacology Branch, DTP, NCI, 2023) one finds viability, T/C, IC50 and outcome data, which are given here for 13 compounds.

Usually viability, T/C stands for the ratio of treated to control. Usually IC50 stands for the concentration that inhibits the measured activity by half.

Where “and” joins values, the source holds several entries; their conditions need not be identical. Identical values can stand only once. Calls of active or inactive are those of the source. Rule for the calls: active = viability on the fitted dose curve at most 10% of control; inactive = the rest.

The assay concerns MPNST multicellular tumor spheroids, viability % test/control. The assay can be described thus: Anticancer human tumor MPNST cell line growth inhibition.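 For IC50: spheroids exposed to agents for seven days after three days of growth.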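 For viability, T/C: luminescence signal used as surrogate for viable cell amount; spheroids exposed to agents for seven days after three days of growth.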 The following applies: for viability, T/C: stronger effect = lower value. The text has this:
Multicellular complex tumor spheroid response to DNA repair inhibitors in combination with DNA-damaging drugs
This study explores the anticancer activities of DNA-damaging drugs and inhibitors of DNA damage repair, both as single agents and in combinations. Complex tumor spheroids comprised of malignant cells, endothelial cells and mesenchymal stem cells served as an in vitro model for human solid tumors. This model system incorporates physiologically relevant features and patient-derived or established malignant cell lines with clinically relevant genetic alterations from many tumor types. Twenty-six patient-derived or established malignant cell lines were evaluated representing sarcoma, melanoma, small cell lung cancer (SCLC), non-small cell lung cancer (NSCLC), as well as bladder, ovarian and pancreatic cancers. The concentration ranges selected for each drug and investigational agent were based upon clinically achievable concentrations if the clinical Cmax of the agent was known.
Compounds. The drugs and compounds olaparib (NSC753686), talazoparib (NSC767125), berzosertib (NSC777718), elimusertib (NSC800525), nedisertib (NSC802822), VX-984 (NSC792969), AZD-1390 (NSC803789), temozolomide (NSC362856), topotecan (NSC609699), trabectedin (NSC813783), staurosporine (NSC755774), and gemcitabine (NSC613327) were obtained from the National Cancer Institute (NCI) Developmental Therapeutics Program Chemical Repository. The FDA-approved anticancer drug set is available from the Developmental Therapeutics Program at https://dtp.cancer.gov/organization/dscb/obtaining/available_plates.htm. […] The stock solutions were prepared in dimethyl sulfoxide (DMSO, Sigma-Aldrich, St. Louis, MO, cat. D2650) at 400-fold the tested concentration and stored at -70 degrees C. Prior to their use, the stock solutions were diluted in fresh medium and the final DMSO concentration in the assay was 0.25% (v/v). All drugs and investigational agents were tested over a range starting from a high concentration at or near the clinical Cmax and decreasing in half-log increments. If the clinical Cmax for an agent had not been determined, the highest concentration tested was 10 microM.
Cell Lines. The patient-derived cancer cell (PDC) lines: 156681-154-R-J1-PDC, 283228-195-R-J1-PDC, 287954-098-R-J1-PDC, 292921-168-R-J2-PDC, 349418-098-R-PDC, 425362-245-T-J1-PDC, 556581-035-R-J1-PDC, and BL0293-F563-PDC were received from the NCI Patient-Derived Models Repository (PDMR, https://pdmr.cancer.gov). The established cell lines HS-SY-2 (RRID:CVCL_8719), MPNST, and SYO-1 (RRID:CVCL_7146) were obtained from the Sloan Kettering Institute. The alveolar soft parts sarcoma cell line ASPS-1 (RRID:CVCL_S738) was established at the NCI and grown from internal seed stocks. The following established cell lines were purchased from the American Type Culture Collection (ATCC, Manassas, VA): G-401 (ATCC, cat. CRL-1441, RRID:CVCL_0270), SW982 (ATCC, cat. HTB-93, RRID:CVCL_1734), VA-ES-BJ (ATCC, cat. CRL-2138, RRID:CVCL_1785), NCI-H719 (ATCC, cat. CRL-5837, RRID:CVCL_1582), NCI-H196 (ATCC, cat. CRL-5823, RRID:CVCL_1509), NCI-H841 (ATCC, cat. CRL-5845, RRID:CVCL_1595), NCI-H1618 (ATCC, cat. CRL-5879, RRID:CVCL_1480), NCI-H1876 (ATCC, cat. CRL-5902, RRID:CVCL_1503), DMS 114 (ATCC, cat. CRL-2066; RRID:CVCL_1174), NCI-H211 (ATCC, cat. CRL-5824; RRID:CVCL_1529), and SW 1271 (ATCC, cat. CRL-2177, RRID:CVCL_1716). The small cell lung cancer cell line COR-L88 was purchased from Sigma-Aldrich (cat. 92031917-1VL, RRID:CVCL_1141). The non-small cell lung cancer cell lines NCI-H226 (RRID:CVCL_1544) and NCI-H322M (RRID:CVCL_1557) were established at the NCI and grown from internal seed stocks. Pooled donor human umbilical vein endothelial cells (HUVEC, Lonza, cat. CC-2519) and human mesenchymal stem cells (hMSC, Lonza, cat. PT-2501) were purchased from Lonza (Walkersville, MD).
Cell Culture. All cells were maintained in an incubator at 37 degrees C and 5% CO2 with 95% humidity. […]

Turning to `CC(C)n1c(=O)n(C)c2cnc3cc(F)c(-c4ccc(OCCCN5CCCCC5)nc4)cc3c21`, the viability, T/C is 116% and 75.2% and 95.3% (compound 0.0316 µM); 92% and 92.2% and 75.8% (compound 0.1 µM); 105% and 84.5% and 144% (compound 0.316 µM); 93.2% and 88.2% and 84.2% (compound 1 µM); 92.5% and 85.4% and 72.3% (compound 3.16 µM); 63.2% and 56.1% and 54.5% (compound 10 µM). Further, the IC50 (curve of compound) is greater than 10000 nM.

In the case of `CC1COCCN1c1cc(-c2ccnn2C)c2ccnc(-c3ccn[nH]3)c2n1` (stereo unspecified), the viability, T/C was 54.6% and 70.5% and 65.8% (compound 0.0316 µM); 47.8% and 60% and 55.1% (compound 0.1 µM); 37.7% and 46.4% and 41.8% (compound 0.316 µM); 39.5% and 46.2% and 33.2% (compound 1 µM); 28.1% and 34.2% and 28.3% (compound 3.16 µM); 22.3% and 30.9% and 25% (compound 10 µM). In addition, the concentration for half-maximal inhibition (IC50) (curve of compound) is 65.9 nM and 315 nM and 154 nM.

For the compound `CC[C@@]1(O)C(=O)OCc2c1cc1n(c2=O)Cc2cc3c(CN(C)C)c(O)ccc3nc2-1`, the viability, T/C is 53% [middle of 10 runs] (compound 0.03 µM) and 41.1% [middle of 10 runs] (compound 0.3 µM). For the same compound, the IC50 (compound alone, run of 12/16/2019) was 28.5 nM [middle of 5 runs].

Consider `CNCc1ccc(-c2cc(-c3nc(-c4ccc(S(=O)(=O)C(C)C)cc4)cnc3N)on2)cc1`, for which the viability, T/C is 119% and 97.4% and 89.4% (compound 0.00949 µM); 113% and 110% and 98.9% (compound 0.03 µM); 100% and 81.1% and 87.2% (compound 0.0949 µM); 74.1% and 69.5% and 55.1% (compound 0.3 µM); 61.8% and 69.6% and 42.9% (compound 0.949 µM); 65.9% and 69.1% and 43.7% (compound 3 µM). Moreover, the 50% inhibitory concentration (IC50) (curve of compound) is > 3000 nM and 495 nM.

With `COc1cc(C)[nH]c(=O)c1CN1CCc2c(Cl)cc(C(OC)C3COC3)c(Cl)c2C1=O` (stereo unspecified), the viability, T/C was 77.2% and 80.5% and 102% (compound 0.0316 µM); 79.6% and 90% and 88.8% (compound 0.1 µM); 84.7% and 83.3% and 96% (compound 0.316 µM); 95.8% and 93.7% and 93.3% (compound 1 µM); 89.1% and 96.8% and 98.1% (compound 3.16 µM); 85.9% and 98.7% and 92.1% (compound 10 µM). Moreover, under “curve of compound”, the IC50 is greater than 10000 nM.

As for `COc1cc2c(cc1O)CCNC21CSC2c3c(OC(C)=O)c(C)c4c(c3C(COC1=O)N1C(O)C3Cc5cc(C)c(OC)c(O)c5C(C21)N3C)OCO4` (stereo unspecified), where the note is “compound 0.003 µM”, the viability, T/C is 12.3% [middle of 10 runs].

Consider `COc1ccc([C@@H](O)c2cc(-c3ncnc4cc(N5CCOCC5)ccc34)c(F)cc2Cl)nn1`, for which the viability, T/C (compound 0.0316 µM) is 33.1% and 109% and 92.9%; the viability, T/C (compound 0.1 µM) was 26% and 94% and 75.6%; the viability, T/C (compound 0.316 µM) was 21.6% and 87.5% and 78.7%; the viability, T/C (compound 1 µM) is 14.7% and 50.9%. For the same compound, the result (compound 1 µM) was inactive.

Turning to `Cc1cc(C)c(CNC(=O)c2cc(-c3ccc(CN4CCOCC4)cc3)cc3c2cnn3C2CCCC2)c(=O)[nH]1`, the viability, T/C is 75.2% and 93.7% and 93.8% (compound 0.0316 µM); 119% and 109% and 93.5% (compound 0.1 µM); 90.4% and 118% and 91.3% (compound 0.316 µM); 97.2% and 101% and 92.3% (compound 1 µM); 107% and 114% and 98.7% (compound 3.16 µM); 79.3% and 100% and 107% (compound 10 µM). Moreover, where the note is “curve of compound”, the IC50 was greater than 10000 nM.

As for `Cc1sc2c(c1C)C(c1ccc(Cl)cc1)=NC(CC(=O)Nc1ccc(O)cc1)c1nnc(C)n1-2` (stereo unspecified), the viability, T/C (compound 0.00949 µM) was 124% and 109% and 90.5%; the viability, T/C (compound 0.03 µM) is 110% and 117% and 95.1%; the viability, T/C (compound 0.0949 µM) was 92.3% and 99.1% and 60.3%; the viability, T/C (compound 0.3 µM) was 63.9% and 75.2% and 36.5%; the viability, T/C (compound 0.949 µM) is 51.5% and 55.6% and 23.4%; the viability, T/C (compound 3 µM) is 46.8% and 52.1% and 25.7%.

Take `Cn1ncnc1[C@H]1c2n[nH]c(=O)c3cc(F)cc(c23)N[C@@H]1c1ccc(F)cc1`: the viability, T/C reads like this: (compound 0.00949 µM) 84.8% and 85.2% and 73.3%; (compound 0.03 µM) 105% and 79.8% and 70.5%; (compound 0.0949 µM) 91.6% and 74.7% and 66.9%; (compound 0.3 µM) 76.3% and 66% and 60.6%; (compound 0.949 µM) 67.1% and 53.2% and 46.5%; (compound 3 µM) 62.9% and 51.3% and 43.7%. In addition, where the note is “curve of compound”, the IC50 is > 3000 nM and 763 nM.

Consider `Cn1nnc2c(C(N)=O)ncn2c1=O`, for which the IC50 (compound alone, run of 11/07/2019) was > 100000 nM and 30700 nM.

As to `O=C(c1cc(Cc2n[nH]c(=O)c3ccccc23)ccc1F)N1CCN(C(=O)C2CC2)CC1`, the viability, T/C is 88.3% and 108% and 83.2% (compound 0.0949 µM); 75.1% and 84.1% and 60.3% (compound 0.3 µM); 79.3% and 91.9% and 51.5% (compound 0.949 µM); 95.2% and 96.5% and 51.2% (compound 3 µM); 68.4% and 72.2% and 27.7% (compound 9.49 µM); 49.3% and 56.8% and 28% (compound 30 µM).

Consider `[2H]c1nc(C)nc([2H])c1-c1cc(NC[C@@H](C)c2cccc3c(C(=O)NC)ccnc23)ncn1`, for which the viability, T/C (compound 0.0316 µM) is 96.1% and 83.1% and 86.7%; the viability, T/C (compound 0.1 µM) was 77.8% and 109% and 75.6%; the viability, T/C (compound 0.316 µM) is 82.6% and 102% and 90.4%; the viability, T/C (compound 1 µM) was 101% and 103% and 119%; the viability, T/C (compound 3.16 µM) was 110% and 104% and 71.3%; the viability, T/C (compound 10 µM) was 101% and 100% and 67.4%. Further, the half-inhibitory concentration (IC50) (curve of compound) is greater than 10000 nM.
